Blank lines part the entries; values can stand above or below the molecule they belong to.
Experiments:
Solubility in PBS buffer = assay type: physicochemical; details: compared with HBP08–2
HMGB1-BoxB [1] = target: T1, HMGB1-BoxB (Homo sapiens, UniProt P09429); assay: Microscale thermophoresis (MST) binding to HMGB1-BoxB; details: 10 nM His-tag RED-tris-NTA labelled protein, PBS-T 0.05 % Tween 20, at least 40 min room temperature, 25 °C
T1 construct: His-tagged HMGB1-BoxB, HMGB1-BoxA, and full length HMGB1 proteins were produced at the Protein Facility; made in house
T1 sequence (P09429 95-163 limits assumed): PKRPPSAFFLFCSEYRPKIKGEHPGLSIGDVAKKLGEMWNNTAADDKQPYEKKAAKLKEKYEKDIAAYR
Description: (§1) His-tagged HMGB1-BoxB, HMGB1-BoxA, and full length HMGB1 proteins were produced at the Protein Facility of the Institute for Research in Biomedicine as previously described, [17], and stored in phosphate-buffered saline (PBS; product No. D8537, Sigma Aldrich, Saint Louis, USA).
(§2) Target proteins were fluorescently-labeled using the specific His-Tag Labeling Kit RED-tris-NTA 2nd Generation of NanoTemper Technologies (Product No. MO-L018), according to manufacturer instructions. A fixed 10 nM concentration of labeled target protein was mixed with sixteen 1:1 serial dilutions of the ligand peptide (see Supplementary Materials, Table S4 for the details about the concentration ranges used for the peptides). Both protein and peptide were dissolved in PBS-T buffer (0.05 % Tween™ 20, NanoTemper Technologies), and incubated for at least 40 min at room temperature. […] Finally, the data were processed by employing the dedicated MO.Affinity Analysis software v2.3 (NanoTemper Technologies GmbH, München, Germany) and the Kd values were determined based on concentration-dependent changes in normalized fluorescence (Fnorm), while the figures were generated using GraphPad Prism software v8.0.2 (GraphPad, Boston, USA). […]

human monocytes = assay: Peptide toxicity on human monocytes (AnnexinV-FITC / propidium iodide, flow cytometry); assay type: cell-based; details: 1 μM or 10 μM, 2 or 4 hours
Description: (§3) After incubation, cells were stained using AnnexinV-FITC and propidium iodide following the manufacturer’s instructions, and cell viability was analyzed by ﬂow cytometry in comparison to the untreated control.

[2] = tested on: murine CXCR4 + 300.19 PreB cell line; assay: Peptide toxicity on murine CXCR4+ 300.19 PreB cells (AnnexinV-FITC / propidium iodide, flow cytometry); assay type: cell-based; details: 1 μM or 10 μM, 2 or 4 hours
Description: as §3

[3] = target: T2, CXCL12/HMGB1 heterocomplex (Homo sapiens, UniProt P09429); assay: In vitro chemotaxis of human monocytes in response to the CXCL12/HMGB1 heterocomplex (Boyden chamber); assay type: cell-based; details: 1 nM CXCL12 + 300 nM HMGB1, peptide 0.1-10 μM, 90 min, four independent experiments, read-out: IC50, inhibition of monocyte migration in response to the CXCL12/HMGB1 heterocomplex
T2 construct: His-tagged HMGB1-BoxB, HMGB1-BoxA, and full length HMGB1 proteins were produced; His-tag; made in house
T2 sequence (P09429 1-215): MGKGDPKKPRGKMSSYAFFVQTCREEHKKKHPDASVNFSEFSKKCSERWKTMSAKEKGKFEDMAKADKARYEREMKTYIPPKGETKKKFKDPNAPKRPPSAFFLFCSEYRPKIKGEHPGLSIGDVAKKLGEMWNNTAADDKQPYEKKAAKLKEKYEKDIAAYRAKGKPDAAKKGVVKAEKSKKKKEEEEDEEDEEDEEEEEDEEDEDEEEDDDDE
Description: The murine 300.19 PreB cell line, stably transfected with the human CXCR4 [47], was cultured under standard culture conditions (5 % CO2, […], 37 °C) in RPMI-1640, supplemented with 10 % Fetal Bovine Serum, 1x non-essential amino acids, 1 mM Sodium pyruvate, 20 mM GlutaMAX, 50 μM β-Mercaptoethanol, 50 U/mL Penicillin and 50 μg/mL Streptomycin (GIBCO). Human monocytes were freshly isolated from buffy-coats obtained by spontaneous donation from healthy individuals (Central Laboratory of Swiss Red Cross, Basel, Switzerland, and Centro Trasfusionale Lugano, Switzerland, Canton Ticino Ethical Committee approval CE3428), and isolated by positive selection using CD14 microbeads (Miltenyi Biotec), as previously described.
In vitro cell migration of CXCR4 + murine 300.19 PreB cells and of freshly isolated human monocytes was performed using Boyden chambers equipped with 5 μm pore membranes, as previously described. Briefly, cells were diluted at 10^6 cell/mL in RPMI 1640, supplemented with 20 mM Hepes, pH 7.4, and 1 % pasteurized plasma protein solution, and allowed to migrate for 90 min in response to different stimuli under standard conditions (5 % CO2, […], 37 °C). CXCL12 was used at 1 nM, 10 nM or 100 nM. The CXCL12/HMGB1 heterocomplex was formed by combining 1 nM CXCL12 with 300 nM HMGB1.

HMGB1-BoxA [4] = target: T3, HMGB1-BoxA (Homo sapiens, UniProt P09429); assay: Microscale thermophoresis (MST) binding to HMGB1-BoxA; details: 10 nM labelled protein, PBS-T 0.05 % Tween 20, at least 40 min room temperature, 25 °C
T3 construct: His-tagged HMGB1-BoxB, HMGB1-BoxA, and full length HMGB1 proteins were produced at the Protein Facility; made in house
T3 sequence (P09429 9-79 limits assumed): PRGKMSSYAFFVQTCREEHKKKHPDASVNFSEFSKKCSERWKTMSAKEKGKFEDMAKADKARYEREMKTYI
Description: as §1, §2

HMGB1-BoxB [5] = assay: MST; 10 nM target protein labelled on its His tag (RED-tris-NTA) mixed with sixteen 1:1 serial dilutions of the peptide; PBS-T (0.05 % Tween 20); incubated at least 40 min at room temperature; 25 °C; Monolith NT.115 Pico, excitation 20 %, MST power 40 %
[6] = target: T4, High Mobility Group Box 1 (HMGB1), full length (UniProt P09429 1-215, RED-tris-NTA dye on the His tag (His-Tag Labeling Kit RED-tris-NTA 2nd Generation) in the MST); assay: as above; details: both partners purified
T4 construct: HMGB1, full length; also called recombinant HMGB1; source: produced at the Protein Facility of the Institute for Research in Biomedicine as previously described
T4 sequence (looked up): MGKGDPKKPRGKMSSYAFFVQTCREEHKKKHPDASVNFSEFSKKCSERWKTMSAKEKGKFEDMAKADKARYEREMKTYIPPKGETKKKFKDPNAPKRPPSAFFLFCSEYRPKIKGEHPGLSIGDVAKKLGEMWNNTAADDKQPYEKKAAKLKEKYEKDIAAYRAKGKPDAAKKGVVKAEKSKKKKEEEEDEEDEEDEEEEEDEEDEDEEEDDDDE

HMGB1-BoxA [7] = target: T5, HMGB1-BoxA (RED-tris-NTA dye on the His tag (His-Tag Labeling Kit RED-tris-NTA 2nd Generation) in the MST); assay: as above; details: both partners purified
T5 chain: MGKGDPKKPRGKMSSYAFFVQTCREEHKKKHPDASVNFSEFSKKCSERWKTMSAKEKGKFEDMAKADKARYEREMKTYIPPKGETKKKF

Molecule: CC[C@H](C)[C@H](NC(=O)[C@H](Cc1c[nH]c2ccccc12)NC(=O)[C@H](CCSC)NC(=O)[C@H](CCC(N)=O)NC(=O)[C@H](Cc1ccc(O)cc1)NC(=O)[C@H](Cc1c[nH]cn1)NC(=O)[C@H](CCCNC(=N)N)NC(=O)[C@@H]1CCCN1)C(=O)N[C@@H](Cc1c[nH]cn1)C(=O)O [HBP08–2]
- toxicity on human monocytes (human monocytes): did not exhibit toxicity
- Kd (HMGB1-BoxB [1]): 11.3 ± 2.3 nM
- toxicity on murine CXCR4+ 300.19 PreB cells [2]: did not exhibit toxicity
- IC50 [3]: 3310 nM
- Kd (HMGB1-BoxA [4]): 4200 ± 400 nM

B1: HBP08–2 (peptide)
peptide: PRHYQMWIH
notes: Reconstituted in DMSO; also called G1P + E5Q; source: synthetic peptide, synthetized by Proteogenix (without TFA), purity about 99 %
- Kd (HMGB1-BoxB [5]): 11.3 nM
- Kd [6]: 28.1 ± 7 nM
- Kd (HMGB1-BoxA [7]): 4200 ± 400 nM

Other lines, results leading:

- solubility in PBS buffer (Solubility in PBS buffer): lower solubility
- Kd (HMGB1-BoxB [1]): 15.3 ± 1.9 nM
Molecule: CC[C@H](C)[C@H](NC(=O)[C@H](Cc1c[nH]c2ccccc12)NC(=O)[C@H](CCSC)NC(=O)[C@H](CCSC)NC(=O)[C@H](Cc1ccc(O)cc1)NC(=O)[C@H](Cc1c[nH]cn1)NC(=O)[C@H](CCCNC(=N)N)NC(=O)[C@@H]1CCCN1)C(=O)N[C@@H](Cc1c[nH]cn1)C(=O)O [HBP08–3]

- Kd (HMGB1-BoxB [5]): 15.3 nM
Molecule: PRHYMMWIH [HBP08–3]

Source: paper PMC12925725, “A potent nonapeptide inhibitor for the CXCL12/HMGB1 heterocomplex: A computational and experimental approach” (Computational and Structural Biotechnology Journal, 2025)
